What was measured:
KRAS G12D/RAF1 = biological target: T1, KRAS G12D/RAF1 (Homo sapiens, UniProt P01116, G12D); assay: Protein-protein interaction (PPI) HTRF assay KRAS G12D/RAF1; format: binding; conditions: Table 4
T1 construct: His6-MBP (N, cleaved yes); made in house; host or cells: E. coli
In short: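 Biotinylated human KRAS (1-169; wt, G12D, G12V) or wt NRAS, GppNHp-loaded, pre-incubated 30 min RT with compound and streptavidin-d2, then His-RAF1 RBD (52-131) with anti-6His Tb cryptate added for 1 h RT. HTRF 665/615 ratio normalized to no compound (0%) and untagged RAF1 (100%); IC50.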

[1] = system: GP2D cells (KRAS G12D), phospho-ERK; assay: pERK In Cell Western (ICW) assay, GP2D cells; format: cell-based; conditions: Table 4, 3 hours
Protocol: (§1) pERK ICW is a high throughput screening assay to evaluate the cellular potency of mutant KRAS small molecule inhibitors. KRAS mutant cell lines AGS and GP2D (KRAS^G12D) were purchased from ATCC and maintained respectively in RPMI and DMEM medium supplemented with 10% fetal bovine serum and Penicillin/Streptomycin.
(§2) Cells grown in exponential phase were trypsinized, resuspended in fresh media, and viable cells were counted using a cell counter with Trypan Blue (BioRad TC20). Cells were seeded into 384-well plate (Greiner 781091) at density of 5,000 cells/well for AGS and 10,000 cells/well for GP2D and allowed to grow overnight in a 37° C. CO2 incubator. The next day, compounds were dispensed into wells with a ½ log, 10-point serial dilution and top concentration of […] using Tecan D300e dispenser and incubated for 3 hours in a 37° C. CO2 incubator. Cells were then fixed with paraformaldehyde (Electron Microscopy Sciences, 15710, 4% final concentration) for 30 min, permeabilized with wash buffer (1×PBS+0.1% Triton X-100) for 30 min and blocked with Odyssey blocking buffer (Li—COR 927-70001) for 1 hour, all at room temperature (RT). Phospho-ERK antibody (CST 4370L) was diluted 1:500 in Odyssey blocking+0.2% Tween 20 and incubated with cells overnight at 4° C. The next day, plates were washed 5× with wash buffer, incubated with IRDye 800 CW, Goat anti-Rabbit secondary antibody (Li—COR 926-32211, 1:500) and DRAQ5 (CST 4084L, 1:5,000) diluted in Odyssey blocking+0.2% Tween 20 for 1 hour, washed 5×, and imaged on an Odyssey CLx imaging system.
(§3) For data analysis, signal intensities from 800 (phosphor-ERK) and 700 (DRAQ5) channels were extracted, and phospho-ERK signals were normalized to DRAQ5 signals for each well and percent of DMSO control values were computed. Data were then imported into Graphpad Prism to compute half-maximal inhibitory concentrations (IC50) using a 4-parameter variable slope model. Z-factor for each plate was computed from signals derived from wells treated with either DMSO or […] of Trametinib. AGS pERK ICW (Method B) IC50 (uM) values of selected compounds are depicted in Table 2 with compounds having a value 0.001 uM to 0.01 uM as ++++; >0.01 uM to 0.1 uM as +++; >0.1 uM to 1 uM as ++; 1 uM to 10 uM as + and >10 uM as NA.

[2] = system: AGS cells (KRAS G12D), phospho-ERK; assay: pERK In Cell Western (ICW) assay (Method B), AGS cells; format: cell-based; conditions: Homo sapiens, Table 4, pERK, 3 hours, read-out: ICW-AGS
Protocol: as §1, §2, §3

T1 sequence (P01116 with tags, fused parts or gaps isoform P01116-2 G12D): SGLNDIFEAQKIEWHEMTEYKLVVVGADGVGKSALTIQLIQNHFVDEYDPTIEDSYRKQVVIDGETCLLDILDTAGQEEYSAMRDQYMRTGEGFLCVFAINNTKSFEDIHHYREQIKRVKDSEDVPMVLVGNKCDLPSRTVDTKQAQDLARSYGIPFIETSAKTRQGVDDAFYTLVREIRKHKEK

## N#Cc1c(N2CCCC3(C2)NC(=O)NC3=O)nc(OC[C@@]23CCCN2C[C@H](F)C3)nc1N1CC2(CCc3sc(N)c(C#N)c32)C1 (stereo partly drawn) [Compound 12, 2-amino-1′-[5-cyano-6-(2,4-dioxo-1,3,9-triazaspiro[4.5]decan-9-yl)-2-[[(2R,8S)-2-fluoro-1,2,3,5,6,7-hexahydropyrrolizin-8-yl]methoxy]pyrimidin-4-yl]spiro[5,6-dihydrocyclopenta[b]thiophene-4,3′-azetidine]-3-carbonitrile]
KRAS G12D/RAF1
  IC50: 100 to 1000 nM
[1]
  IC50: 1000 to 10000 nM
[2]
  IC50: 1000 to 10000 nM

## CC(=O)c1nn2c(c1Cl)CN(c1nc(OC[C@@]34CCCN3C[C@H](F)C4)nc(N3CC4(CCc5sc(N)c(C#N)c54)C3)c1C#N)CCC2 [Compound 13, 1′-[6-(2-acetyl-3-chloro-4,6,7,8-tetrahydropyrazolo[1,5-a][1,4]diazepin-5-yl)-5-cyano-2-[[(2R,8S)-2-fluoro-1,2,3,5,6,7-hexahydropyrrolizin-8-yl]methoxy]pyrimidin-4-yl]-2-amino-spiro[5,6-dihydrocyclopenta[b]thiophene-4,3′-azetidine]-3-carbonitrile]
KRAS G12D/RAF1
  IC50: 1000 to 10000 nM
[1]
  IC50: 1 to 10 nM
[2]
  IC50: 10 to 100 nM

## CC1CC2(CN(c3nc(OC[C@@]45CCCN4C[C@H](F)C5)nc(N4CCCn5nc(C(=O)N(C)C)c(Cl)c5C4)c3C#N)C2)c2c1sc(N)c2C#N (stereo partly drawn) [Compound 14, 5-[6-(2-amino-3-cyano-6-methyl-spiro[5,6-dihydrocyclopenta[b]thiophene-4,3′-azetidine]-1′-yl)-5-cyano-2-[[(2R,8S)-2-fluoro-1,2,3,5,6,7-hexahydropyrrolizin-8-yl]methoxy]pyrimidin-4-yl]-3-chloro-N,N-dimethyl-4,6,7,8-tetrahydropyrazolo[1,5-a][1,4]diazepine-2-carboxamide]
KRAS G12D/RAF1
  IC50: 100 to 1000 nM
[1]
  IC50: 1 to 10 nM
[2]
  IC50: 10 to 100 nM

## N#Cc1c(N)sc2c1C1(CC2)CN(c2nc(OC[C@@]34CCCN3C[C@H](F)C4)nc(N3C[C@H]4CC[C@@H](C3)N4)c2F)C1 [Compound 15, 2-amino-1′-[6-(3,8-diazabicyclo[3.2.1]octan-3-yl)-5-fluoro-2-[[(2R,8S)-2-fluoro-1,2,3,5,6,7-hexahydropyrrolizin-8-yl]methoxy]pyrimidin-4-yl]spiro[5,6-dihydrocyclopenta[b]thiophene-4,3′-azetidine]-3-carbonitrile]
KRAS G12D/RAF1
  IC50: 100 to 1000 nM
[1]
  IC50: 10 to 100 nM
[2]
  IC50: 10 to 100 nM

## Cc1noc(-c2cc3n(n2)CCCN(c2nc(OC[C@@]45CCCN4C[C@H](F)C5)nc(N4CC5(CCc6sc(N)c(C#N)c65)C4)c2C#N)C3)n1 [Compound 16, 2-amino-1′-[5-cyano-6-[2-(3-methyl-1,2,4-oxadiazol-5-yl)-4,6,7,8-tetrahydropyrazolo[1,5-a][1,4]diazepin-5-yl]-2-[[(2R,8S)-2-fluoro-1,2,3,5,6,7-hexahydropyrrolizin-8-yl]methoxy]pyrimidin-4-yl]spiro[5,6-dihydrocyclopenta[b]thiophene-4,3′-azetidine]-3-carbonitrile]
KRAS G12D/RAF1
  IC50: 10000 to 100000 nM
[1]
  IC50: 100 to 1000 nM
[2]
  IC50: 100 to 1000 nM

## Cc1noc(-c2nn3c(c2Cl)CN(c2nc(OC[C@@]45CCCN4C[C@H](F)C5)nc(N4CC5(CCc6sc(N)c(C#N)c65)C4)c2C#N)CCC3)n1 [Compound 17, 2-amino-1′-[6-[3-chloro-2-(3-methyl-1,2,4-oxadiazol-5-yl)-4,6,7,8-tetrahydropyrazolo[1,5-a][1,4]diazepin-5-yl]-5-cyano-2-[[(2R,8S)-2-fluoro-1,2,3,5,6,7-hexahydropyrrolizin-8-yl]methoxy]pyrimidin-4-yl]spiro[5,6-dihydrocyclopenta[b]thiophene-4,3′-azetidine]-3-carbonitrile]
KRAS G12D/RAF1
  IC50: 1000 to 10000 nM
[1]
  IC50: 10 to 100 nM
[2]
  IC50: 100 to 1000 nM

## CN(C)C(=O)c1nn2c(c1Cl)CN(c1nc(OCC34CCCN3CCC4)nc(N3CC4(CCc5sc(N)c(C#N)c54)C3)c1C#N)CCC2 [Compound 18, 5-[6-(2-amino-3-cyano-spiro[5,6-dihydrocyclopenta[b]thiophene-4,3′-azetidine]-1′-yl)-5-cyano-2-(1,2,3,5,6,7-hexahydropyrrolizin-8-ylmethoxy)pyrimidin-4-yl]-3-chloro-N,N-dimethyl-4,6,7,8-tetrahydropyrazolo[1,5-a][1,4]diazepine-2-carboxamide]
KRAS G12D/RAF1
  IC50: 100 to 1000 nM
[1]
  IC50: 10 to 100 nM
[2]
  IC50: 100 to 1000 nM

## N#Cc1c(N2CCCCCC2)nc(OC[C@@]23CCCN2C[C@H](F)C3)nc1N1CC2(CCc3sc(N)c(C#N)c32)C1 [Compound 19, 2-amino-1′-[6-(azepan-1-yl)-5-cyano-2-[[(2R)-2-fluoro-1,2,3,5,6,7-hexahydropyrrolizin-8-yl]methoxy]pyrimidin-4-yl]spiro[5,6-dihydrocyclopenta[b]thiophene-4,3′-azetidine]-3-carbonitrile]
KRAS G12D/RAF1
  IC50: 1000 to 10000 nM
[1]
  IC50: 100 to 1000 nM
[2]
  IC50: 1000 to 10000 nM

## CS(=O)(=O)c1cc2n(n1)CCCN(c1nc(OC[C@@]34CCCN3C[C@H](F)C4)nc(N3CC4(CCc5sc(N)c(C#N)c54)C3)c1C#N)C2 [Compound 21, 2-amino-1′-[5-cyano-2-[[(2R,8S)-2-fluoro-1,2,3,5,6,7-hexahydropyrrolizin-8-yl]methoxy]-6-(2-methylsulfonyl-4,6,7,8-tetrahydropyrazolo[1,5-a][1,4]diazepin-5-yl)pyrimidin-4-yl]spiro[5,6-dihydrocyclopenta[b]thiophene-4,3′-azetidine]-3-carbonitrile]
KRAS G12D/RAF1
  IC50: 1000 to 10000 nM
[1]
  IC50: 10 to 100 nM
[2]
  IC50: 100 to 1000 nM

## N#Cc1c(N)sc2c1C1(CC2)CN(c2nc(OCC3(CN4CCOCC4)CC3)nc(N3C[C@H]4CC[C@@H](C3)N4)c2F)C1 [Compound 22, 2-amino-1′-[6-(3,8-diazabicyclo[3.2.1]octan-3-yl)-5-fluoro-2-[[1-(morpholinomethyl)cyclopropyl]methoxy]pyrimidin-4-yl]spiro[5,6-dihydrocyclopenta[b]thiophene-4,3′-azetidine]-3-carbonitrile]
KRAS G12D/RAF1
  IC50: 100 to 1000 nM
[1]
  IC50: 10 to 100 nM
[2]
  IC50: 10 to 100 nM

## N#Cc1c(N2C[C@H]3CC[C@@H](C2)N3)nc(OCC2(CN3CCOCC3)CC2)nc1N1CC2(CCc3sc(N)nc32)C1 [Compound 23, 4-(2-aminospiro[5,6-dihydrocyclopenta[d]thiazole-4,3′-azetidine]-1′-yl)-2-[[1-(morpholinomethyl)cyclopropyl]methoxy]-6-[(1R,5S)-3,8-diazabicyclo[3.2.1]octan-3-yl]pyrimidine-5-carbonitrile]
KRAS G12D/RAF1
  IC50: 1000 to 10000 nM
[1]
  IC50: 10 to 100 nM
[2]
  IC50: 100 to 1000 nM

## N#Cc1cc2n(n1)CCCN(c1nc(OC[C@@]34CCCN3C[C@H](F)C4)nc(N3CC4(CCc5sc(N)c(C#N)c54)C3)c1C#N)C2 [Compound 24, 2-amino-1′-[5-cyano-6-(2-cyano-4,6,7,8-tetrahydropyrazolo[1,5-a][1,4]diazepin-5-yl)-2-[[(2R,8S)-2-fluoro-1,2,3,5,6,7-hexahydropyrrolizin-8-yl]methoxy]pyrimidin-4-yl]spiro[5,6-dihydrocyclopenta[b]thiophene-4,3′-azetidine]-3-carbonitrile]
KRAS G12D/RAF1
  IC50: 10000 to 100000 nM
[1]
  IC50: 100 to 1000 nM
[2]
  IC50: 100 to 1000 nM

## N#Cc1c(N2C[C@H]3CC[C@@H](C2)N3)nc(OC[C@@]23CCCN2C[C@H](F)C3)nc1N1CC2(CCc3sc(N)c(C#N)c32)C1 [Compound 25, 2-amino-1′-[5-cyano-6-(3,8-diazabicyclo[3.2.1]octan-3-yl)-2-[[(2R,8S)-2-fluoro-1,2,3,5,6,7-hexahydropyrrolizin-8-yl]methoxy]pyrimidin-4-yl]spiro[5,6-dihydrocyclopenta[b]thiophene-4,3′-azetidine]-3-carbonitrile]
KRAS G12D/RAF1
  IC50: 100 to 1000 nM
[1]
  IC50: 1 to 10 nM
[2]
  IC50: 10 to 100 nM

## CN(C)CC(F)(F)COc1nc(N2C[C@H]3CC[C@@H](C2)N3)c(C#N)c(N2CC3(CCc4sc(N)c(C#N)c43)C2)n1 [Compound 26, 2-amino-1′-[5-cyano-6-(3,8-diazabicyclo[3.2.1]octan-3-yl)-2-[3-(dimethylamino)-2,2-difluoro-propoxy]pyrimidin-4-yl]spiro[5,6-dihydrocyclopenta[b]thiophene-4,3′-azetidine]-3-carbonitrile]
KRAS G12D/RAF1
  IC50: 10000 to 100000 nM
[1]
  IC50: 100 to 1000 nM
[2]
  IC50: 1000 to 10000 nM

Source: patent publication US12145947B2, “Pyrimidine based modulators and uses thereof” (Quanta Therapeutics, Inc., priority 2022, dated 2024)
